#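 Method: 48-hour compound exposure of cells in 96-well plates, five concentrations, linear interpolation of endpoints. GI50 marks 50% less growth. At the TGI there is no net growth.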
# Tests used:
# Assay in all cases: NCI anticancer screen, dose series, 48 h
# [1] = test system: MDA-MB-231 breast
# [2] = test system: NCI-H522 lung
# [3] = test system: SF-539 CNS
# [4] = test system: PC-3 prostate
# [5] = test system: HCT-116 colon
# [6] = test system: LOX IMVI melanoma
# [7] = test system: MDA-MB-435
# [8] = test system: SF-295 CNS
# [9] = test system: RPMI-8226 leukemia
# [10] = test system: 786-0 renal
# [11] = test system: SK-OV-3 ovarian
# [12] = test system: U251 CNS
# [13] = test system: UACC-257 melanoma
# [14] = test system: SNB-19 CNS
# [15] = test system: CCRF-CEM leukemia
# [16] = test system: DU-145 prostate
# [17] = test system: HT29 colon
# [18] = test system: BT-549 breast
# [19] = test system: M14 melanoma
# [20] = test system: UACC-62 melanoma
# [21] = test system: NCI-H460 lung
# [22] = test system: OVCAR-5 ovarian
# [23] = test system: HCT-15 colon
# [24] = test system: A549 NSCLC
# [25] = test system: SNB-75 CNS
# [26] = test system: OVCAR-3 ovarian
# [27] = test system: SF-268 CNS
# [28] = test system: RXF 393 renal
# [29] = test system: SK-MEL-5 melanoma
# [30] = test system: OVCAR-4 ovarian
# [31] = test system: SK-MEL-28 melanoma
# [32] = test system: HL-60(TB) leukemia
# [33] = test system: SW-620 colon
# [34] = test system: CAKI-1 renal
# [35] = test system: HOP-62 NSCLC
# [36] = test system: NCI/ADR-RES ovarian
# [37] = test system: OVCAR-8 ovarian
# [38] = test system: ACHN renal
# [39] = test system: K-562 leukemia
# [40] = test system: EKVX NSCLC
# [41] = test system: NCI-H226 lung
# [42] = test system: MOLT-4 leukemia
# [43] = test system: KM12 colon
# [44] = test system: NCI-H23 lung
# [45] = test system: UO-31 renal
# [46] = test system: SN12C renal
structure (smiles),measurement,setting,value
Nc1ccccc1C#Cc1ccccc1C#Cc1cnccn1,GI50,[1],14.3 µM
same,TGI,[1],29.3 µM
same,GI50,[2],9.05 µM
same,TGI,[2],30.2 µM
same,GI50,[3],17.1 µM
same,TGI,[3],31.6 µM
same,GI50,[4],12.7 µM
same,TGI,[4],27.5 µM
same,GI50,[5],17 µM
same,TGI,[5],36.4 µM
same,GI50,[6],17 µM
same,TGI,[6],33.7 µM
same,GI50,[7],3.48 µM
same,TGI,[7],13.6 µM
same,GI50,[8],11.8 µM
same,TGI,[8],24 µM
same,GI50,[9],14.8 µM
same,TGI,[9],50.2 µM
same,GI50,[10],15.3 µM
same,TGI,[10],28.7 µM
same,GI50,[11],22.2 µM
same,TGI,[11],55 µM
same,GI50,[12],17.7 µM
same,TGI,[12],32 µM
same,GI50,[13],35.3 µM
same,TGI,[13],79.9 µM
same,GI50,[14],20.1 µM
same,TGI,[14],40.5 µM
same,GI50,[15],33.2 µM
same,TGI,[15],> 100 µM
same,GI50,[16],14.5 µM
same,TGI,[16],28.1 µM
same,GI50,[17],24.8 µM
same,TGI,[17],53 µM
same,GI50,[18],13.7 µM
same,TGI,[18],28.7 µM
same,GI50,[19],16 µM
same,TGI,[19],29.5 µM
same,GI50,[20],14.6 µM
same,TGI,[20],28 µM
same,GI50,[21],7.87 µM
same,TGI,[21],20.5 µM
same,GI50,[22],18.6 µM
same,TGI,[22],43.5 µM
same,GI50,[23],16.6 µM
same,TGI,[23],34.6 µM
same,GI50,[24],44.3 µM
same,TGI,[24],> 100 µM
same,GI50,[25],24.6 µM
same,TGI,[25],84.8 µM
same,GI50,[26],9.79 µM
same,TGI,[26],25.8 µM
same,GI50,[27],11.7 µM
same,TGI,[27],25.1 µM
same,GI50,[28],85.4 µM
same,TGI,[28],> 100 µM
same,GI50,[29],4.6 µM
same,TGI,[29],18 µM
same,GI50,[30],20.6 µM
same,TGI,[30],72.3 µM
same,GI50,[31],17.5 µM
same,TGI,[31],32 µM
same,GI50,[32],21.5 µM
same,TGI,[32],> 100 µM
same,GI50,[33],17.3 µM
same,TGI,[33],31.7 µM
same,GI50,[34],14.3 µM
same,TGI,[34],29.2 µM
same,GI50,[35],21.1 µM
same,TGI,[35],54.9 µM
same,GI50,[36],16.2 µM
same,TGI,[36],37.4 µM
same,GI50,[37],48 µM
same,TGI,[37],> 100 µM
same,GI50,[38],24.1 µM
same,TGI,[38],46.2 µM
same,GI50,[39],26.1 µM
same,TGI,[39],93.1 µM
same,GI50,[40],14.1 µM
same,TGI,[40],27.7 µM
same,GI50,[41],17.2 µM
same,TGI,[41],32.8 µM
same,GI50,[42],40.8 µM
same,TGI,[42],> 100 µM
same,GI50,[43],11 µM
same,TGI,[43],23.9 µM
same,GI50,[44],16.8 µM
same,TGI,[44],30.5 µM
same,GI50,[45],12.1 µM
same,TGI,[45],28.1 µM
same,GI50,[46],15.2 µM
same,TGI,[46],30 µM
